The test system of assay [1] is TNF-α production in THP-1 cells. Nature of the assay: TNF-α production inhibition test. The note with it: Homo sapiens; PMA-treated THP-1 cells, LPS 50 ng/mL, 2 hours, TNF-α in supernatant by ELISA. The format is cell-based. The procedure:
PMA (phorbol myristate acetate, SIGMA, P1585) was added to THP-1 cells in an amount of 50 ng/mL to culture the cells for 2 days at 37° C. The culture medium was replaced with a serum-free RPMI-1640 medium, and a compound with a known concentration was added thereto to culture the cells at 37° C. for 15 minutes. LPS (Lipopolysaccharide SIMGA, L2880) was added so that each final concentration becomes 50 ng/mL, followed by culturing at 37° C. for 2 hours. The supernatants were collected to measure the concentration of TNF-α by ELISA (DuoSet ELISA human TNF-α, R&D Systems, DY210). The TNF-α concentrations were plotted against log concentrations of test compounds, and an IC50 value was calculated by sigmoid Emax model nonlinear regression analysis.
In general terms: An ELISA detects its analyte on a solid surface through an enzyme-linked reagent.

A further assay concerns the target T1, NLRP3 inflammasome (Homo sapiens, UniProt Q96P20).
T1 construct: endogenous in cells; host or cells: THP-1 cells (PMA-differentiated, stimulated with LPS and ATP)
Nature of the assay: THP-1 IL-1β production inhibition test. The format is cell-based. The note with it: PMA-treated THP-1 cells, LPS 50 ng/mL + ATP 5 mM, 2 hours, IL-1β in supernatant by ELISA. The procedure: PMA (phorbol myristate acetate, SIGMA, P1585) was added to THP-1 cells in an amount of 50 ng/mL to culture the cells for 2 days at 37° C. […] LPS (Lipopolysaccharide, SIMGA, L2880) and ATP (Adenosine triphosphate, SIGMA, A2383) were added so that final concentrations become 50 ng/mL and 5 mM, respectively, followed by culturing at 37° C. for 2 hours. The supernatants were collected to measure the concentrations of IL-1β by ELISA (DuoSet ELISA human IL-1β, R&D Systems, DY201). The IL-1β concentrations were plotted against log concentrations of test compounds, and an IC50 value was calculated by sigmoid Emax model nonlinear regression analysis.

Molecules are shown by their SMILES. Where a name gives a salt, the structure may show the parent alone.

T1 sequence (Q96P20 whole entry): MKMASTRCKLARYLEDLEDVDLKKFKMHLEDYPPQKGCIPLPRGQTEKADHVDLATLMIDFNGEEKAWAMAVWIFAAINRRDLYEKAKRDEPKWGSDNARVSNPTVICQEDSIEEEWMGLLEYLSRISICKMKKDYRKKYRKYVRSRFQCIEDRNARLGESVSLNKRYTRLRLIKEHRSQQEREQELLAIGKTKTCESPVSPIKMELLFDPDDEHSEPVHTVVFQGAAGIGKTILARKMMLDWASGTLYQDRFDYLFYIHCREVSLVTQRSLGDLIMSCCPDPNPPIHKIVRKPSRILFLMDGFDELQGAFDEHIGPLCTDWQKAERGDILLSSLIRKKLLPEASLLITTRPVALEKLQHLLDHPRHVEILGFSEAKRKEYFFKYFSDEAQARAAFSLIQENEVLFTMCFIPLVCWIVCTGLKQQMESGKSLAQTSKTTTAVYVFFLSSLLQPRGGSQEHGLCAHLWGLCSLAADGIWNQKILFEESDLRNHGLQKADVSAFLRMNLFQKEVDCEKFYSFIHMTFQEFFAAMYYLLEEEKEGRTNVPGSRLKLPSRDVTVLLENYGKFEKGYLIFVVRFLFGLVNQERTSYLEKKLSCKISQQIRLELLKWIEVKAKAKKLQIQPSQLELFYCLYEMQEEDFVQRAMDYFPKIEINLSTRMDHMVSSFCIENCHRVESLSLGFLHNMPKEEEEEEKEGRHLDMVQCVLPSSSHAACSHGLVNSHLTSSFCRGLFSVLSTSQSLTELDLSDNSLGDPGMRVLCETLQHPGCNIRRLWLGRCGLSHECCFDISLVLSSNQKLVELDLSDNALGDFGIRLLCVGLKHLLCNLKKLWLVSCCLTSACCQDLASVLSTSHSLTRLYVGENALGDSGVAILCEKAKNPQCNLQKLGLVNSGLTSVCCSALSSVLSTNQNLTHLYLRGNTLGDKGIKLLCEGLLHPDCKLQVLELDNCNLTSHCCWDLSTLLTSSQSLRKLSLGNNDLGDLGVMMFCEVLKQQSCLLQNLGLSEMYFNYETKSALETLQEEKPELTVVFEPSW

With `CN1CCC[C@@H](Nc2nnc(-c3ccc(C(F)(F)F)cc3O)c3c2COCC3)C1` [Example 125], the values for the half-maximal inhibitory concentration (IC50) (in assay [1]; on NLRP3 inflammasome) were at least 10000 nM and 1.5 nM, respectively.

With `Oc1cc(Cl)ccc1-c1nnc(N[C@@H]2CCCC[C@H]2O)c2c1CCOC2` [Example 70, 5-chloro-2-(4-{[(1R,2R)-2-hydroxycyclohexyl]amino}-7,8-dihydro-5H-pyrano[3,4-d]pyridazin-1-yl)phenol], the IC50 is at least 10000 nM in assay [1] and 2.1 nM on NLRP3 inflammasome.

As for `Oc1cc(C(F)(F)F)ccc1-c1nnc(N[C@@H]2CCCC[C@H]2O)c2c1CCOCC2` [Example 5, 2-(4-{[(1R,2R)-2-hydroxycyclohexyl]amino}-5,6,8,9-tetrahydrooxepino[4,5-d]pyridazin-1-yl)-5-(trifluoromethyl)phenol], the IC50 in assay [1] is at least 10000 nM; on NLRP3 inflammasome, 4.7 nM.

As for `CN1CCc2c(-c3ccc(C(F)(F)F)cc3O)nnc(N[C@@H]3CCCC[C@H]3O)c2C1` [Example 73, 2-(4-{[(1R,2R)-2-hydroxycyclohexyl]amino}-6-methyl-5,6,7,8-tetrahydropyrido[3,4-d]pyridazin-1-yl)-5-(trifluoromethyl)phenol], the IC50 in assay [1] was at least 10000 nM; at NLRP3 inflammasome it was 7.6 nM.

As to `Oc1cc(OC(F)F)ccc1-c1nnc(N[C@@H]2CCCC[C@H]2O)c2c1CCCC2` [Example 83, 5-(difluoromethoxy)-2-(4-{[(1R,2R)-2-hydroxycyclohexyl]amino}-5,6,7,8-tetrahydrophthalazin-1-yl)phenol], the 50% inhibitory concentration (IC50) is at least 10000 nM in assay [1] and 4.8 nM on NLRP3 inflammasome.

Consider `Oc1cc(OC(F)F)ccc1-c1nnc(N[C@@H]2CCCC[C@H]2O)c2c1CCOC2` [Example 88, 5-(difluoromethoxy)-2-(4-{[(1R,2R)-2-hydroxycyclohexyl]amino}-7,8-dihydro-5H-pyrano[3,4-d]pyridazin-1-yl)phenol], for which the IC50 in assay [1] was at least 10000 nM; on NLRP3 inflammasome, 1.8 nM.

`Oc1cc(C(F)(F)F)ccc1-c1nnc(N[C@@H]2CCCC[C@H]2O)c2c1COCC2` [2(2), 2-(1-{[(1R,2R)-2-hydroxycyclohexyl]amino}-7,8-dihydro-5H-pyrano[3,4-d]pyridazin-4-yl)-5-(trifluoromethyl)phenol]: the IC50 at NLRP3 inflammasome came out at 14 nM.

Turning to `CN1CCC[C@@H](Nc2nnc(-c3ccc(C4CC4)cc3O)c3c2COCC3)C1` [Example 112, 5-cyclopropyl-2-(4-{[(3R)-1-methylpiperidin-3-yl]amino}-7,8-dihydro-5H-pyrano[3,4-d]pyridazin-1-yl)phenol], on NLRP3 inflammasome, the IC50 amounted to 1.3 nM.

On to `Oc1cc(C(F)F)ccc1-c1nnc(N[C@@H]2CCCC[C@H]2O)c2c1CCOC2` [Example 87], for which the IC50 on NLRP3 inflammasome was 6.5 nM.

Take `Oc1cc(C(F)(F)F)ccc1-c1nnc(N[C@@H]2CCCC[C@H]2O)c2c1CCSC2` [Example 103]: the IC50 at NLRP3 inflammasome stood at 4.4 nM.

Turning to `O=S1(=O)Cc2c(N[C@@H]3CCCC[C@H]3O)nnc(-c3ccc(C(F)(F)F)cc3O)c2C1` [131(1)], the IC50 on NLRP3 inflammasome is 3 nM.

Consider `CN1CCC[C@@H](Nc2nnc(-c3ccc(C(F)(F)F)cc3O)c3c2CCOCC3)C1` [Example 105], for which the IC50 on NLRP3 inflammasome came to 8.9 nM.

With `Oc1cc(C(F)(F)F)ccc1-c1nnc(N[C@@H]2CCCC[C@H]2O)c2c1CSC2` [Example 111, 2-(4-{[(1R,2R)-2-hydroxycyclohexyl]amino}-5,7-dihydrothieno[3,4-d]pyridazin-1-yl)-5-(trifluoromethyl)phenol], the IC50 in assay [1] is at least 10000 nM; at NLRP3 inflammasome it was 2.9 nM.

Take `COc1ccc(-c2nnc(N[C@@H]3CCCN(C)C3)c3c2CCOC3)c(O)c1` [Example 110]: on NLRP3 inflammasome, the IC50 is 1.4 nM.

With `C[C@@H](O)CNc1nnc(-c2ccc(C(F)(F)F)cc2C(F)(F)F)c2c1CN(C)CC2` [Example 74], on NLRP3 inflammasome, the IC50 was 1400 nM.

As to `CN1CCC[C@@H](Nc2nnc(-c3ccc(OC(F)(F)F)cc3O)c3c2COCC3)C1` [Example 128, 2-(4-{[(3R)-1-methylpiperidin-3-yl]amino}-7,8-dihydro-5H-pyrano[3,4-d]pyridazin-1-yl)-5-(trifluoromethoxy)phenol], the IC50 at NLRP3 inflammasome was found to be 3.3 nM.

On to `CC(=O)N1CCC[C@@H](Nc2nnc(-c3ccc(C(F)(F)F)cc3O)c3c2CSC3)C1` [Example 119], for which the IC50 on NLRP3 inflammasome was 6 nM.

`C[C@@H](O)CNc1nnc(-c2ccc(C(F)(F)F)cc2O)c2c1CCC2` [Example 18]: the concentration for half-maximal inhibition (IC50) on NLRP3 inflammasome came out at 34 nM.

For `O=C1NCC[C@@H]1Nc1nnc(-c2ccc(C(F)(F)F)cc2O)c2c1CCCC2` [Example 50], at NLRP3 inflammasome, the IC50 was 8.2 nM.

`C[C@]1(O)C[C@@H](Nc2nnc(-c3ccc(C(F)(F)F)cc3O)c3c2CCOC3)C1` [56(2)]: the IC50 at NLRP3 inflammasome amounted to 36 nM.

With `Oc1cc(C(F)(F)F)ccc1-c1nnc(N[C@@H]2CCCC[C@H]2O)c2c1CNCC2` [Example 91], the IC50 at NLRP3 inflammasome came out at 560 nM.

In the case of `Oc1cc(C(F)(F)F)ccc1-c1nnc(N[C@@H]2CCCC[C@@H]2O)c2c1CCOC2` [4(1), 2-(4-{[(1R,2S)-2-hydroxycyclohexyl]amino}-7,8-dihydro-5H-pyrano[3,4-d]pyridazin-1-yl)-5-(trifluoromethyl)phenol], the IC50 in assay [1] was at least 10000 nM; at NLRP3 inflammasome it was 2.5 nM.

Consider `CS(=O)(=O)N1CCc2c(-c3ccc(C(F)(F)F)cc3O)nnc(N[C@@H]3CCCC[C@H]3O)c2C1` [Example 93, 2-[4-{[(1R,2R)-2-hydroxycyclohexyl]amino}-6-(methanesulfonyl)-5,6,7,8-tetrahydropyrido[3,4-d]pyridazin-1-yl]-5-(trifluoromethyl)phenol], for which the half-maximal inhibitory concentration (IC50) at NLRP3 inflammasome worked out at 200 nM.

Consider `COc1ccc(-c2nnc(N[C@@H]3CCCC[C@H]3O)c3c2CCOC3)c(O)c1` [Example 69], for which the IC50 on NLRP3 inflammasome turned out to be 6.6 nM.

On to `N[C@@H]1CCCC[C@H]1Nc1nnc(-c2ccc(C(F)(F)F)cc2O)c2ccccc12` [Example 82, 2-(4-{[(1R,2R)-2-aminocyclohexyl]amino}phthalazin-1-yl)-5-(trifluoromethyl)phenol dihydrochloride], for which the 50% inhibitory concentration (IC50) on NLRP3 inflammasome turned out to be 28 nM.

For `Oc1cc(C(F)(F)F)ccc1-c1nnc(N[C@@H]2CCCC[C@H]2O)c2c1CCOC2` [Example 133, 2-(4-{[(1R,2R)-2-hydroxycyclohexyl]amino}-7,8-dihydro-5H-pyrano[3,4-d]pyridazin-1-yl)-5-(trifluoromethyl)phenol monohydrochloride], the IC50 on NLRP3 inflammasome stood at 1.3 nM.

Turning to `Oc1cc(C(F)(F)F)ccc1-c1nnc(N[C@@H]2CCCC[C@@H]2O)c2c1COCC2` [4(2), 2-(1-{[(1R,2S)-2-hydroxycyclohexyl]amino}-7,8-dihydro-5H-pyrano[3,4-d]pyridazin-4-yl)-5-(trifluoromethyl)phenol], the half-maximal inhibitory concentration (IC50) at NLRP3 inflammasome turned out to be 15 nM.

Turning to `CN1CCC[C@@H](Nc2nnc(-c3ccc(C(F)F)cc3O)c3c2COCC3)C1` [Example 113], the half-inhibitory concentration (IC50) at NLRP3 inflammasome was 1.2 nM.

As to `Oc1cc(C(F)(F)F)ccc1-c1nnc(N[C@@H]2CCOC[C@H]2O)c2c1CCCC2` [Example 35], the IC50 on NLRP3 inflammasome is 16 nM.

As to `Oc1cc(C(F)(F)F)ccc1-c1nnc(N[C@H]2CCCC[C@@H]2O)c2c1COCC2` [66(1)], the IC50 at NLRP3 inflammasome came to 990 nM.

For `C[C@@]1(O)CCCC[C@H]1Nc1nnc(-c2ccc(OC(F)(F)F)cc2O)c2c1CCCC2` [Example 54], the IC50 on NLRP3 inflammasome was found to be 21 nM.

Consider `CC(=O)NCCCCNc1nnc(-c2ccc(C(F)(F)F)cc2O)c2c1COCC2` [Example 118], for which the IC50 on NLRP3 inflammasome was 4.8 nM.

Regarding `COc1ccc(-c2nnc(N[C@@H]3CCCC[C@@]3(C)O)c3c2CCCC3)c(O)c1` [Example 58], at NLRP3 inflammasome, the IC50 is 88 nM.

As to `O=S1(=O)CCc2c(-c3ccc(C(F)(F)F)cc3O)nnc(N[C@@H]3CCCC[C@H]3O)c2C1` [Example 129, 4-{[(1R,2R)-2-hydroxycyclohexyl]amino}-1-[2-hydroxy-4-(trifluoromethyl)phenyl]-7,8-dihydro-6λ^6-thiopyrano[3,4-d]pyridazin-6,6(5H)-dione], at NLRP3 inflammasome, the half-inhibitory concentration (IC50) was 86 nM.

As for `C[C@]1(O)C[C@@H](Nc2nnc(-c3ccc(C(F)(F)F)cc3O)c3c2CCCC3)C1` [Example 29], on NLRP3 inflammasome, the IC50 came out at 18 nM.

As for `Oc1cc(C(F)(F)F)ccc1-c1nnc(N[C@@H]2CCC[C@H](O)C2)c2c1CCOC2` [Example 104], the IC50 at NLRP3 inflammasome was found to be 3.5 nM.

In the case of `N[C@@H]1CCCC[C@H]1Nc1nnc(-c2ccc(C(F)(F)F)cc2O)c2c1CCOC2` [Example 95, 2-(1-{[(1R,2R)-2-aminocyclohexyl]amino}-7,8-dihydro-5H-pyrano[3,4-d]pyridazin-4-yl)-5-(trifluoromethyl)phenol], the IC50 on NLRP3 inflammasome is 61 nM.

`Oc1cc(OC(F)(F)F)ccc1-c1nnc(N[C@@H]2CCC[C@H](O)C2)c2c1CCOC2` [Example 106]: on NLRP3 inflammasome, the IC50 was 4.8 nM.

As for `Cc1cc(O)c(-c2nnc(N[C@@H]3CCCC[C@H]3O)c3c2COCC3)c(F)c1` [62(2)], the IC50 on NLRP3 inflammasome was found to be 27 nM.

For `Oc1cc(C(F)(F)F)ccc1-c1nnc(N[C@@H]2CCOC[C@H]2O)c2c1CCCCC2` [Example 44], the IC50 on NLRP3 inflammasome is 6.8 nM.

Regarding `COc1ccc(-c2nnc(N[C@@H]3CCCC[C@H]3O)c3c2CCCCC3)c(O)c1` [Example 47], on NLRP3 inflammasome, the IC50 came out at 16 nM.

As to `Oc1cc(C(F)(F)F)ccc1-c1nnc(N[C@@H]2CCCN(C3CCC3)C2)c2c1CCCC2` [Example 71], on NLRP3 inflammasome, the IC50 is 150 nM.

A word on the IC50: it is the concentration that inhibits the measured activity by half.

For the origin of these results see patent US20250084092A1, “ANNULATED PYRIDAZINE COMPOUND” (Nico Therapeutics, Inc., priority 2021, published 2025).
